Assay results: patent publication US9642833B2, “Vitamin C and vitamin K, and compositions thereof for treatment of osteolysis or prolongation of prosthetic implant” (IC-MEDTECH CORPORATION, priority 2009, dated 2017)

Tested on: HS68 fibroblasts
Assay: MTT cytotoxicity against human dermal fibroblasts
Type: cell-based
Details: for VK3 CD50: in combination with Sodium L-Ascorbate; for CD50: vitamins alone

SMILES	VK3 CD50 (ratio of vitamin C to vitamin K3 100, incubation 1 day)	VK3 CD50 (ratio of vitamin C to vitamin K3 100, incubation 2 days)	VK3 CD50 (ratio of vitamin C to vitamin K3 100, incubation 3 days)	VK3 CD50 (ratio of vitamin C to vitamin K3 200, incubation 1 day)	VK3 CD50 (ratio of vitamin C to vitamin K3 200, incubation 2 days)	VK3 CD50 (ratio of vitamin C to vitamin K3 200, incubation 3 days)	CD50 (incubation 1 day)	CD50 (incubation 2 days)	CD50 (incubation 3 days)	VC CD50 (in combination with VK3, ratio of vitamin C to vitamin K3 100, incubation 1 day)	VC CD50 (in combination with VK3, ratio of vitamin C to vitamin K3 100, incubation 2 days)	VC CD50 (in combination with VK3, ratio of vitamin C to vitamin K3 100, incubation 3 days)	VC CD50 (in combination with VK3, ratio of vitamin C to vitamin K3 200, incubation 1 day)	VC CD50 (in combination with VK3, ratio of vitamin C to vitamin K3 200, incubation 2 days)	VC CD50 (in combination with VK3, ratio of vitamin C to vitamin K3 200, incubation 3 days)
CC1=CC(=O)c2ccccc2C1=O [VK3, vitamin K3]	4.7 µM	4.7 µM	4.7 µM	2.3 µM	2.3 µM	2.0 µM	18.7 µM	19.0 µM	18.7 µM						
O=C1O[C@H]([C@@H](O)CO)C([O-])=C1O.[Na+] [Sodium L-Ascorbate, sodium L-ascorbate]							1468 µM	1245 µM	1185 µM	458 µM	471 µM	471 µM	466 µM	467 µM	397 µM
